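Test compounds were applied to cells in 96-well plates for 48 hours at 5 doses. TGI marks complete inhibition of growth.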
Legend:
Test in all cases: NCI anticancer screen, dose series, 48 h
SF-295 CNS = test system: SF-295 CNS
MCF7 breast = test system: MCF7 breast
UACC-257 melanoma = test system: UACC-257 melanoma
K-562 leukemia = test system: K-562 leukemia
IGROV1 ovarian = test system: IGROV1 ovarian
ACHN renal = test system: ACHN renal
SK-MEL-28 melanoma = test system: SK-MEL-28 melanoma
SR leukemia = test system: SR leukemia
NCI-H460 lung = test system: NCI-H460 lung
CCRF-CEM leukemia = test system: CCRF-CEM leukemia

| Compound | TGI (SF-295 CNS) [µM] | TGI (MCF7 breast) [µM] | TGI (UACC-257 melanoma) [µM] | TGI (K-562 leukemia) [µM] | TGI (IGROV1 ovarian) [µM] | TGI (ACHN renal) [µM] | TGI (SK-MEL-28 melanoma) [µM] | TGI (SR leukemia) [µM] | TGI (NCI-H460 lung) [µM] | TGI (CCRF-CEM leukemia) [µM] |
| --- | --- | --- | --- | --- | --- | --- | --- | --- | --- | --- |
| N#CCCN(CCC#N)c1ccc(/C=C2\N=C(c3ccccc3)N(c3ccc(F)cc3)C2=O)cc1 | > 100 | > 100 | > 100 | > 100 | > 100 | > 100 | > 100 | > 100 | > 100 | – |
| COc1cc2c(c3c1c(=O)c1ccccc1n3C)C=CC1(CCCC1)O2 | 12.1 | 39.4 | 31 | 21.7 | 28.4 | 32.7 | 28 | 52.8 | 24.6 | 53.9 |
| C1=C(c2ccccc2)SC(N2CCCCC2)S1 (stereo unspecified) | > 100 | – | > 100 | > 100 | > 100 | – | – | > 100 | > 100 | > 100 |
| C=CCSC1=N/C(=C\c2ccc(Cl)cc2)C(=O)N1CC=C | > 100 | 46.2 | 76.7 | > 100 | > 100 | > 100 | > 100 | 48.4 | > 100 | 51.8 |
| COc1ccc(N2C(=O)C3c4[nH]c5ccc(OCc6ccccc6)cc5c4C4CCC(c5ccccc5)CC4C3C2=O)cc1 (stereo unspecified) | 36.5 | > 75 | > 100 | 12 | > 74.3 | 41.5 | – | 7.14 | 12.3 | 26.8 |
| COc1cc(/C=C2\C(=O)N(c3cccc([N+](=O)[O-])c3)C(c3ccccc3)S2(=O)=O)cc(OC)c1OC (stereo unspecified) | > 100 | > 100 | > 100 | > 100 | > 100 | > 100 | > 100 | > 100 | > 100 | > 100 |
| O=C(O)CCc1nc2c(n1-c1ccccc1)C(=O)c1ccccc1C2=O | > 100 | > 100 | > 100 | > 100 | > 100 | > 100 | > 100 | > 100 | > 100 | > 100 |
| COC(=O)Cc1cc(O)c2c(c1O)C(=O)c1ccccc1C2=O | > 72.4 | > 56.3 | > 100 | > 100 | > 100 | > 77.9 | > 100 | > 100 | > 100 | > 100 |
| COc1cccc(N2C(=O)CSC2c2cccc(Oc3ccccc3)c2)c1 (stereo unspecified) | > 100 | 7.13 | 12.3 | 11.4 | – | 41 | > 100 | 17.6 | 12.3 | > 100 |
| O=C1[C@H](O)[C@@H]2C(O)O[C@H]3[C@@H]2N1C[C@H]3[Si](c1ccccc1)(c1ccccc1)c1ccccc1 (stereo partly specified) | > 100 | > 100 | > 100 | > 100 | > 100 | > 100 | > 100 | > 100 | > 100 | – |
| COC(=O)[C@H]1C=NN[C@@H]1C(=O)N1[C@H]2CC3CC[C@@]2(CS1(=O)=O)C3(C)C | > 100 | > 100 | > 100 | > 100 | > 100 | > 100 | > 100 | > 100 | > 100 | > 100 |
| O=c1[nH]c2nc3ccccc3c(=O)n2/c1=C/c1ccc(Cl)cc1 | > 100 | > 100 | > 100 | – | – | > 100 | > 100 | > 100 | – | > 100 |
| CCN(CCCOc1ccccc1)CCN(CC)CCCOc1ccccc1 | 41 | 57.3 | 31.5 | 15.5 | 23.5 | 31.5 | 36.7 | 26.6 | 34.9 | > 100 |
| N=C1C(=N)c2ccccc2-c2ccccc21.[Cl-].[Ru+2].c1ccc(-c2ccccn2)nc1.c1ccc(-c2ccccn2)nc1 | > 100 | – | > 100 | > 100 | > 100 | > 100 | > 100 | > 100 | > 100 | > 100 |
| CCC/C(Cl)=N\OC(=O)Nc1ccc(F)cc1 | > 100 | > 55 | 30.5 | 4 | 33.3 | 24.7 | 38.4 | 5.49 | > 100 | 3.85 |
| c1ccc(/C(=N/Nc2nc3ccccc3s2)C2CCCCC2)nc1 | 29.9 | 6.01 | 17.5 | 70 | 16.5 | 19.3 | 25.8 | 16.8 | 26.1 | 15.4 |
| CC(=O)NC1C(OCc2ccccc2)OC(CO)C(O)C1OCC(=O)N1CCCC1C(=O)N[C@@H](CCC(=O)NCCCCNc1c2ccccc2nc2cccc([N+](=O)[O-])c12)C(N)=O (stereo partly specified) | > 100 | 53.8 | – | > 100 | 50.6 | > 100 | > 100 | > 100 | 61.4 | – |
| CCNCCNC(=O)c1ccc(I)cc1 | – | > 100 | – | > 100 | > 100 | > 100 | > 100 | > 100 | > 100 | > 100 |
| Cc1ccc2c(c1)-c1nc(N)c(C#N)c(-c3ccc(Cl)cc3)c1CCS2(=O)=O | – | – | > 100 | – | > 100 | > 100 | > 100 | 65.6 | > 100 | 72 |
| Cc1ccc(C(=N)c2ccccc2Cc2cccc3ccccc23)c2ccccc12 | > 100 | > 100 | > 100 | > 100 | > 100 | > 100 | > 100 | > 100 | > 100 | > 100 |
| Cn1c(=O)c2[nH]c(N/N=N/c3nncs3)nc2n(C)c1=O | > 100 | > 100 | > 100 | > 100 | > 100 | > 100 | > 100 | – | > 100 | > 100 |

Reference: PubChem BioAssay (NCI)
